Assay results taken from paper PMC5706040, “Reclamation of Marine Chitinous Materials for the Production of α-Glucosidase Inhibitors via Microbial Conversion” (Marine Drugs, 2017).

Key:
Assay in all cases: absorbance at […] nm, p-nitrophenol release
[1] = target: T1, Rice α-glucosidase; format: biochemical, Oryza sativa; conditions: pNPG substrate, 0.1 mol/L potassium phosphate pH 7, 37 °C, 20 min preincubation, enzyme 1.0 U/mL
T1 construct: gene Os06g0675700; commercial enzyme from rice, type 4 (Sigma Aldrich)

[2] = target: T2, S. cerevisiae α-glucosidase; format: biochemical, Saccharomyces cerevisiae; conditions: pNPG substrate, 0.1 mol/L potassium phosphate pH 7, 37 °C, 20 min preincubation, enzyme 0.25 U/mL
T2 construct: gene MAL12; commercial yeast enzyme (Sigma Aldrich, Singapore)

[3] = target: T3, B. stearothermophilus α-glucosidase; format: biochemical, Geobacillus stearothermophilus; conditions: pNPG substrate, 0.1 mol/L potassium phosphate pH 7, 37 °C, 20 min preincubation, enzyme 0.10 U/mL
T3 construct: gene exo-alpha-1; commercial enzyme (Sigma Aldrich, Singapore)

[4] = target: T4, Rat intestinal α-glucosidase; format: biochemical; conditions: pNPG substrate, 0.1 mol/L potassium phosphate pH 7, 37 °C, 20 min preincubation, intestinal acetone powder preparation
T4 construct: gene Si; preparation from rat intestinal acetone powder (Sigma Aldrich)

`C[C@H]1O[C@H](O[C@H]2[C@H](O)[C@@H](O)[C@@H](O[C@H]3[C@H](O)[C@@H](O)C(O)O[C@@H]3CO)O[C@@H]2CO)[C@H](O)[C@@H](O)[C@@H]1N[C@H]1C=C(CO)[C@@H](O)[C@H](O)[C@H]1O` (stereo partly shown) [acarbose] was tested, and the “Inhibition by Acarbose / IC50” value [1] was 3.04 ± 0.82 µg/mL, the “α-Glucosidase Inhibition / IC50” value [2] was 1095 ± 93 µg/mL and the “Inhibition by Acarbose / IC50” value [3] was 0.042 ± 0.003 µg/mL. For the same compound, the “Inhibition by Acarbose / IC50” value [4] was 78 ± 3.2 µg/mL.
